Test results published in PubChem BioAssay AID1259407 (Chemical Carcinogenesis Research Information System (CCRIS), 2018).
The source made the active and inactive calls. No rule for the calls is given here.

Tested on: CCRIS mutagenicity, Ames/micronucleus/aberration tests
Assay: CCRIS mutagenicity studies
[1] = Test System: AMES SALMONELLA TYPHIMURIUM, Strain/Indicator: TA98, Metabolic Activation: NONE, Method: STANDARD PLATE
[2] = Test System: AMES SALMONELLA TYPHIMURIUM, Strain/Indicator: TA98, Metabolic Activation: RAT, LIVER, S-9, AROCLOR 1254, Method: STANDARD PLATE
[3] = Test System: AMES SALMONELLA TYPHIMURIUM, Strain/Indicator: TA100, Metabolic Activation: NONE, Method: STANDARD PLATE
[4] = Test System: AMES SALMONELLA TYPHIMURIUM, Strain/Indicator: TA100, Metabolic Activation: RAT, LIVER, S-9, AROCLOR 1254, Method: STANDARD PLATE
[5] = Test System: AMES SALMONELLA TYPHIMURIUM, Strain/Indicator: TA1535, Metabolic Activation: NONE, Method: STANDARD PLATE
[6] = Test System: AMES SALMONELLA TYPHIMURIUM, Strain/Indicator: TA1535, Metabolic Activation: RAT, LIVER, S-9, AROCLOR 1254, Method: STANDARD PLATE
[7] = Test System: AMES SALMONELLA TYPHIMURIUM, Strain/Indicator: TA1537, Metabolic Activation: NONE, Method: STANDARD PLATE
[8] = Test System: AMES SALMONELLA TYPHIMURIUM, Strain/Indicator: TA1537, Metabolic Activation: RAT, LIVER, S-9, AROCLOR 1254, Method: STANDARD PLATE
[9] = Test System: AMES SALMONELLA TYPHIMURIUM, Strain/Indicator: TA1538, Metabolic Activation: NONE, Method: STANDARD PLATE
[10] = Test System: AMES SALMONELLA TYPHIMURIUM, Strain/Indicator: TA100, Metabolic Activation: NONE, Method: PREINCUBATION

C=C1CC[C@H]2C[C@@H]1C2(C)C
mutagenic call (Test System: AMES SALMONELLA TYPHIMURIUM, Strain/Indicator: TA98, Metabolic Activation: HAMSTER, LIVER, S-9, AROCLOR 1254 (2.5-20%), Method: PREINCUBATION): inactive; negative | mutagenic call (Test System: AMES SALMONELLA TYPHIMURIUM, Strain/Indicator: TA98, Metabolic Activation: HAMSTER, LIVER, S-9, AROCLOR 1254, Method: STANDARD PLATE): inactive; negative | mutagenic call [1]: inactive; negative | mutagenic call [2]: inactive; negative | mutagenic call (Test System: AMES SALMONELLA TYPHIMURIUM, Strain/Indicator: TA100, Metabolic Activation: HAMSTER, LIVER, S-9, AROCLOR 1254 (2.5-20%), Method: PREINCUBATION): inactive; negative | mutagenic call (Test System: AMES SALMONELLA TYPHIMURIUM, Strain/Indicator: TA100, Metabolic Activation: HAMSTER, LIVER, S-9, AROCLOR 1254, Method: STANDARD PLATE): inactive; negative | mutagenic call [3]: inactive; negative | mutagenic call [4]: inactive; negative | mutagenic call (Test System: AMES SALMONELLA TYPHIMURIUM, Strain/Indicator: TA102, Metabolic Activation: HAMSTER, LIVER, S-9, AROCLOR 1254, Method: PREINCUBATION): inactive; negative | mutagenic call (Test System: AMES SALMONELLA TYPHIMURIUM, Strain/Indicator: TA102, Metabolic Activation: NONE, Method: PREINCUBATION): inactive; negative | mutagenic call (Test System: AMES SALMONELLA TYPHIMURIUM, Strain/Indicator: TA102, Metabolic Activation: RAT, LIVER, S-9, AROCLOR 1254, Method: PREINCUBATION): inactive; negative | mutagenic call (Test System: AMES SALMONELLA TYPHIMURIUM, Strain/Indicator: TA1535, Metabolic Activation: HAMSTER, LIVER, S-9, AROCLOR 1254, Method: STANDARD PLATE): inactive; negative | mutagenic call [5]: inactive; negative | mutagenic call [6]: inactive; negative | mutagenic call (Test System: AMES SALMONELLA TYPHIMURIUM, Strain/Indicator: TA1537, Metabolic Activation: HAMSTER, LIVER, S-9, AROCLOR 1254, Method: STANDARD PLATE): inactive; negative | mutagenic call [7]: inactive; negative | mutagenic call [8]: inactive; negative | mutagenic call (Test System: AMES SALMONELLA TYPHIMURIUM, Strain/Indicator: TA1538, Metabolic Activation: HAMSTER, LIVER, S-9, AROCLOR 1254, Method: STANDARD PLATE): inactive; negative | mutagenic call [9]: inactive; negative | mutagenic call (Test System: AMES SALMONELLA TYPHIMURIUM, Strain/Indicator: TA1538, Metabolic Activation: RAT, LIVER, S-9, AROCLOR 1254, Method: STANDARD PLATE): inactive; negative | mutagenic call (Test System: Mouse lymphoma, Strain/Indicator: L5178Y (tk+/tk-), Metabolic Activation: None, Method: Suspension/plate): inactive; negative | mutagenic call (Test System: Mouse lymphoma, Strain/Indicator: L5178Y (tk+/tk-), Metabolic Activation: Rat, Liver, S-9, Aroclor 1254, Method: Suspension/plate): inactive; inconcludive (previous evaluation negative)

CCN(CC)CCNc1ccc2ncn3c4ccc(O)cc4c(=O)c1c23
mutagenic call [7]: active; positive | mutagenic call (Test System: AMES SALMONELLA TYPHIMURIUM, Strain/Indicator: TA1537, Metabolic Activation: S-9, Method: STANDARD PLATE): active; positive | mutagenic call (Test System: CHINESE HAMSTER V-79, Strain/Indicator: V-79 (HGPRT)/6-THIOGUANINE, Metabolic Activation: NONE): active; positive

Nc1ccc2c(c1)C(=O)c1ccc(N)cc1C2=O
mutagenic call [1]: inactive; negative | mutagenic call [2]: active; positive | mutagenic call [3]: inactive; negative | mutagenic call [4]: inactive; negative | mutagenic call [5]: inactive; negative | mutagenic call [6]: inactive; negative | mutagenic call [7]: inactive; negative | mutagenic call [8]: active; positive | mutagenic call [9]: inactive; negative | mutagenic call (Test System: AMES SALMONELLA TYPHIMURIUM, Strain/Indicator: TA1978, Metabolic Activation: RAT, LIVER, S-9, AROCLOR 1254, Method: STANDARD PLATE): inactive; negative

O=C(ON(OCc1ccccc1)C(=O)c1ccccc1)c1ccc(Cl)cc1
mutagenic call [3]: active; positive | mutagenic call (Test System: AMES SALMONELLA TYPHIMURIUM, Strain/Indicator: TA100, Metabolic Activation: RAT, S-9, AROCLOR, Method: STANDARD PLATE): active; positive

COc1cc2c(c3oc(=O)c4c(c13)CCC4=O)[C@@H]1CCO[C@@H]1O2
mutagenic call [2]: active; positive | mutagenic call [10]: active; positive | mutagenic call [4]: active; positive | mutagenic call (Test System: AMES SALMONELLA TYPHIMURIUM, Strain/Indicator: TA100, Metabolic Activation: RAT, LIVER, S-9, PHENOBARBITAL, Method: PREINCUBATION): active; positive | mutagenic call (Test System: CHINESE HAMSTER V-79, Strain/Indicator: V-79/6-THIOGUANINE, Metabolic Activation: RAT, LIVER, S-9, PHENOBARBITAL, Method: STANDARD PLATE): active; positive

O=[N+]([O-])c1cccc2cn[nH]c12
mutagenic call [1]: active; positive

COc1cccc2c1cc1c3c(cc4c(c32)OCO4)C(=O)N1[C@H]1O[C@H](CO)[C@@H](O)[C@H](O)[C@H]1O
mutagenic call (Test System: AMES SALMONELLA TYPHIMURIUM, Strain/Indicator: TM677/8-AZAGUANINE, Metabolic Activation: NONE, Method: SUSPENSION/PLATE): inactive; negative

Cn1cc2ccc([N+](=O)[O-])cc2n1
mutagenic call [1]: active; positive

COc1cc(CNC(=O)C(C)Br)ccc1O (stereo not drawn)
mutagenic call [3]: active; positive

C=C(C)C(=O)OCC(Br)CBr (stereo not drawn)
mutagenic call (Test System: AMES SALMONELLA TYPHIMURIUM, Strain/Indicator: TA98, Metabolic Activation: HAMSTER, LIVER, S-9, AROCLOR 1254 (10%), Method: PREINCUBATION): active; positive | mutagenic call (Test System: AMES SALMONELLA TYPHIMURIUM, Strain/Indicator: TA98, Metabolic Activation: NONE, Method: PREINCUBATION): inactive; negative | mutagenic call (Test System: AMES SALMONELLA TYPHIMURIUM, Strain/Indicator: TA98, Metabolic Activation: RAT, LIVER, S-9, AROCLOR 1254 (10%), Method: PREINCUBATION): inactive; negative | mutagenic call (Test System: AMES SALMONELLA TYPHIMURIUM, Strain/Indicator: TA100, Metabolic Activation: HAMSTER, LIVER, S-9, AROCLOR 1254 (10%), Method: PREINCUBATION): active; positive | mutagenic call [10]: inactive; negative | mutagenic call (Test System: AMES SALMONELLA TYPHIMURIUM, Strain/Indicator: TA100, Metabolic Activation: RAT, LIVER, S-9, AROCLOR 1254 (10%), Method: PREINCUBATION): active; positive | mutagenic call (Test System: AMES SALMONELLA TYPHIMURIUM, Strain/Indicator: TA1535, Metabolic Activation: HAMSTER, LIVER, S-9, AROCLOR 1254 (10%), Method: PREINCUBATION): active; positive | mutagenic call (Test System: AMES SALMONELLA TYPHIMURIUM, Strain/Indicator: TA1535, Metabolic Activation: NONE, Method: PREINCUBATION): inactive; negative | mutagenic call (Test System: AMES SALMONELLA TYPHIMURIUM, Strain/Indicator: TA1535, Metabolic Activation: RAT, LIVER, S-9, AROCLOR 1254 (10%), Method: PREINCUBATION): active; positive | mutagenic call (Test System: AMES SALMONELLA TYPHIMURIUM, Strain/Indicator: TA1537, Metabolic Activation: HAMSTER, LIVER, S-9, AROCLOR 1254 (10%), Method: PREINCUBATION): inactive; negative | mutagenic call (Test System: AMES SALMONELLA TYPHIMURIUM, Strain/Indicator: TA1537, Metabolic Activation: NONE, Method: PREINCUBATION): inactive; negative | mutagenic call (Test System: AMES SALMONELLA TYPHIMURIUM, Strain/Indicator: TA1537, Metabolic Activation: RAT, LIVER, S-9, AROCLOR 1254 (10%), Method: PREINCUBATION): inactive; negative
